Results from PubChem BioAssay (NCI).
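96-well plates; 48 h exposure; 5 concentrations. Endpoints by linear interpolation between flanking doses. Not reached: highest tested concentration assigned. TGI: total growth inhibition.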

How the values were obtained:
Experiment in all cases: NCI anticancer screen, dose series, 48 h
SF-268 CNS = system: SF-268 CNS
OVCAR-5 ovarian = system: OVCAR-5 ovarian
RPMI-8226 leukemia = system: RPMI-8226 leukemia
U251 CNS = system: U251 CNS
SNB-19 CNS = system: SNB-19 CNS
NCI/ADR-RES ovarian = system: NCI/ADR-RES ovarian
M14 melanoma = system: M14 melanoma
NCI-H23 lung = system: NCI-H23 lung
UACC-257 melanoma = system: UACC-257 melanoma
SNB-75 CNS = system: SNB-75 CNS

SMILES | TGI (SF-268 CNS) [µM] | TGI (OVCAR-5 ovarian) [µM] | TGI (RPMI-8226 leukemia) [µM] | TGI (U251 CNS) [µM] | TGI (SNB-19 CNS) [µM] | TGI (NCI/ADR-RES ovarian) [µM] | TGI (M14 melanoma) [µM] | TGI (NCI-H23 lung) [µM] | TGI (UACC-257 melanoma) [µM] | TGI (SNB-75 CNS) [µM]
O=C(/C=C/c1ccc2c(c1)OCO2)Cc1nc2ccccc2[nH]c1=O | 55.3 | > 100 | > 100 | 34.2 | 49.4 | > 100 | > 100 | > 100 | 59.5 | 
COc1cc([N+](=O)[O-])c(OC)c2c(Nc3ccc(S(=O)(=O)O)c4cc(S(=O)(=O)O)cc(S(=O)(=O)O)c34)cc(C)nc12 | > 100 | > 100 |  | > 100 |  | > 100 | > 100 | > 100 | > 100 | > 100
O=[N+]([O-])c1ccc2c(c1)c(N=NC(=S)Nc1ccc(Cl)cc1)c(O)n2CN1CCOCC1 | 16.5 |  |  | 20.1 | 20.8 | 5.9 | 21.7 | 9.44 | 26.5 | 25.8
N#C/C(=C1\SC(N=Nc2ccc(Cl)cc2)C(=O)N1c1ccccc1)c1nc2ccccc2[nH]1 (configuration not stated) | > 100 | > 100 |  | 44.8 | 89.6 |  | > 100 | 65.8 | 92.6 | 65.5
C=CC(=O)N1C/C(=C\c2ccc(Cl)cc2)C(=O)/C(=C/c2ccc(Cl)cc2)C1 | 0.617 | 2.1 |  | 0.983 | 2.67 | 9.41 | 0.735 | 2.15 | 3.65 | 1.64
Cc1cccc(/C(Br)=C2/OC(=O)c3ccccc32)c1 | > 100 | > 100 | > 100 | > 100 |  |  | > 100 | > 100 | > 100 | > 100
COc1ccc([C@H]2C=[N+]([O-])O[C@H](OC3CCCC3)[C@@H]2OC(C)=O)cc1OC | > 100 |  | > 100 | > 100 | > 100 | 63.6 | 44.4 | 57.2 | 54.3 | > 100
COP(=O)(OC)C(Nc1ccc(Cc2ccc(NC(c3ccco3)P(=O)(OC)OC)cc2)cc1)c1ccco1 (configuration not stated) | > 100 | > 100 |  | 21.4 | 71.3 | > 100 | > 100 | 44.5 | > 100 | 10.2
COc1ccc(N2C(=O)C3c4[nH]c5ccccc5c4C4CCCCCCCCCC4C3C2=O)cc1 (configuration not stated) | > 10 | > 10 | > 10 | > 10 | > 10 | > 10 | > 10 | > 10 |  | > 10
O=C1OC(c2ccccc2)N(C(=O)c2ccccc2)C1Cc1ccc(OCc2ccccc2)cc1 (configuration not stated) | > 100 | > 100 | > 100 | > 100 | > 100 | > 100 | > 100 | > 100 |  | > 100
O=C1C2=Nc3ccccc3C(O)(C(=O)O)N2c2ccccc21 (configuration not stated) | > 100 | 49.4 | > 100 | > 100 |  | > 100 |  | 54.3 | 24.2 | 74.2
COc1ccc(/C=N/n2c(C)nc3c(sc(=S)n3-c3ccccc3)c2=O)cc1 | > 100 | > 100 | > 100 | > 100 | > 100 |  |  | > 100 | > 100 | 41.4
